Results: US20240368135A1 (VERTEX PHARMACEUTICALS INCORPORATED, priority 2021, published 2024)
Where two headings read alike, the source gives them in different places.

Molecular target: human NaV 1.8 (Homo sapiens, UniProt Q9Y5Y9)
Assay: E-VIPR assay detecting and measuring NaV inhibition properties
Format: cell-based
Details: HEK cells expressing truncated human NaV 1.8
Procedure, shortened: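 HEK cells expressing truncated, fully active human NaV1.8, with KIR2.1 BacMam co-transduction, were loaded with CC2-DMPE/DiSBAC6(3) voltage-sensing dyes for 20 min at room temperature. Compounds were tested in 11-point 3-fold dilutions (300 nM top final), optionally with 25% human serum, under electrical stimulation with FRET read-out.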

[1] = no human serum, read-out: IC50 in the E-VIPR Assay
[2] = in the presence of human serum (compound numbers followed by *), read-out: IC50 in the E-VIPR Assay, performed in the presence of human serum

Sequence of human NaV 1.8 (Q9Y5Y9 126-399 limits assumed): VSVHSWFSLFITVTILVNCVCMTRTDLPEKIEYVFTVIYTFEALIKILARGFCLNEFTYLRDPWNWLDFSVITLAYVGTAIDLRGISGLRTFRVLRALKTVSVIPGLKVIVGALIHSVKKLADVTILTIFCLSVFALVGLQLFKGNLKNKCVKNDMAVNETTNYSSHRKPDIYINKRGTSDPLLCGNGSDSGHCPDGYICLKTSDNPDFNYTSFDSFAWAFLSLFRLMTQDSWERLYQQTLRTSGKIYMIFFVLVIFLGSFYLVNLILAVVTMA
Sequence of human NaV 1.8 (Q9Y5Y9 660-890 limits assumed): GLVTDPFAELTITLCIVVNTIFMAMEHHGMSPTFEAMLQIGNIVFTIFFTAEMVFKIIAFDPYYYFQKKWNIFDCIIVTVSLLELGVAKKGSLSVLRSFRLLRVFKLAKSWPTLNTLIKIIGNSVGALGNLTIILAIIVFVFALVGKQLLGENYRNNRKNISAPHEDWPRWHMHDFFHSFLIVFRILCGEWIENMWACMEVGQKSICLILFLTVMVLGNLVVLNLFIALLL
Sequence of human NaV 1.8 (Q9Y5Y9 1148-1722 limits assumed): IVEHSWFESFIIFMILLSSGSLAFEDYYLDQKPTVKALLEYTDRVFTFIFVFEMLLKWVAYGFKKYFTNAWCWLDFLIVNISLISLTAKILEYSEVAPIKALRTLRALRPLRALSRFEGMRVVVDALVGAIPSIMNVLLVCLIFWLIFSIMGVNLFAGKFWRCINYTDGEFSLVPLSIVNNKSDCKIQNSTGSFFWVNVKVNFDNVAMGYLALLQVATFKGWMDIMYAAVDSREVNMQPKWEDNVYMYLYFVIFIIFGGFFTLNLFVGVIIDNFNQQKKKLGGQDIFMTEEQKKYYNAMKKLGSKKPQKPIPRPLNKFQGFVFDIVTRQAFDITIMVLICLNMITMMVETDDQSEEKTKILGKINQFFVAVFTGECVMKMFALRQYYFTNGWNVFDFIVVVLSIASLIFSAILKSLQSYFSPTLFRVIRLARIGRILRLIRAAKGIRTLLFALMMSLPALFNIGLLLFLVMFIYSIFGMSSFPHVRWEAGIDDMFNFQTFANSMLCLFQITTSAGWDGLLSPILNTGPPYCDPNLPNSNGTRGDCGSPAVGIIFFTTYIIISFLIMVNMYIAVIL

With `COCCNC(COC)c1ccc(NC(=O)[C@@H]2O[C@@](C)(C(F)(F)F)[C@@H](C)[C@H]2c2ccc(F)c(F)c2OC)cn1` (single isomer, unassigned) [Compound 417, rel-(2R*,3S*,4S*,5R*)-3-(3,4-difluoro-2-methoxyphenyl)-N-(6-(2-methoxy-1-((2-methoxyethyl)amino)-ethyl)pyridin-3-yl)-4,5-dimethyl-5-(trifluoromethyl)-tetrahydrofuran-2-carboxamide] the IC50 [1] was 10 to 100 nM.

Work on `COc1c(C2C(C(=O)Nc3cccnc3)OC(C)(C(F)(F)F)C2C)ccc(F)c1F` (single isomer, unassigned) [Compound 29, 3-(3,4-difluoro-2-methoxy-phenyl)-4,5-dimethyl-N-(3-pyridyl)-5-(trifluoromethyl)tetrahydrofuran-2-carboxamide] yielded an IC50 [1] of at least 1000 nM.

Work on `COc1c([C@@H]2[C@@H](C(=O)Nc3cncc(S(=O)(=O)N(C)C)c3)O[C@](C)(C(F)(F)F)[C@@H]2C)ccc(F)c1F` (stereo in doubt) [Compound 452, rel-(2S,3R,4R,5S)-3-(3,4-difluoro-2-methoxyphenyl)-N-(5-(N,N-dimethylsulfamoyl)pyridin-3-yl)-4,5-dimethyl-5-(trifluoromethyl)tetrahydrofuran-2-carboxamide] yielded an IC50 [1] of at least 1000 nM.

With `COc1c(C2CC(C)(C(F)(F)F)OC2C(=O)Nc2ccnc(C(O)C(C)O)c2)ccc(F)c1F` (single isomer, unassigned) [Compound 697] the IC50 [2] was at least 1000 nM.

`COc1c([C@H]2[C@H](C(=O)NCc3nc(C(C)C)no3)O[C@@](C)(C(F)(F)F)[C@H]2C)ccc(F)c1F` [Compound 289, (2R,3S,4S,5R)-3-(3,4-difluoro-2-methoxyphenyl)-N-((3-isopropyl-1,2,4-oxadiazol-5-yl)methyl)-4,5-dimethyl-5-(trifluoromethyl)tetrahydrofuran-2-carboxamide] gave an IC50 [1] of at least 1000 nM.

`COc1c([C@H]2[C@H](C(=O)NCC3CC3)O[C@@](C)(C(F)(F)F)[C@H]2C)ccc(F)c1F` [Compound 270, (2R,3S,4S,5R)-N-(cyclopropylmethyl)-3-(3,4-difluoro-2-methoxyphenyl)-4,5-dimethyl-5-(trifluoromethyl)tetrahydrofuran-2-carboxamide] gave an IC50 [1] of 100 to 1000 nM.

Work on `COc1c([C@H]2[C@H](C(=O)Nc3ccnc(C4(N(C)C)COC4)c3)O[C@@](C)(C(F)(F)F)[C@H]2C)ccc(F)c1F` [Compound 362, (2R,3S,4S,5R)-3-(3,4-difluoro-2-methoxyphenyl)-N-(2-(3-(dimethylamino)oxetan-3-yl)pyridin-4-yl)-4,5-dimethyl-5-(trifluoromethyl)tetrahydrofuran-2-carboxamide] yielded an IC50 [1] of under 10 nM.

`COc1ccc(NC(=O)[C@@H]2O[C@@](C)(C(F)(F)F)[C@@H](C)[C@H]2c2ccc(F)c(C(F)F)c2OC)cn1` (single isomer, unassigned) [Compound 167] gave an IC50 [1] of 10 to 100 nM.

With `COc1c([C@H]2[C@H](C(=O)Nc3ccnc(N4CCC(N)C4=O)c3)O[C@@](C)(C(F)(F)F)[C@H]2C)ccc(F)c1F` (single isomer, unassigned) [Compound 497, rel-(2R*,3S*,4S*,5R*)-N-(2-(3-amino-2-oxopyrrolidin-1-yl)pyridin-4-yl)-3-(3,4-difluoro-2-methoxyphenyl)-4,5-dimethyl-5-(trifluoromethyl)tetrahydrofuran-2-carboxamide] the IC50 [1] was 10 to 100 nM.

In the case of `COc1c(C2C(C(=O)Nc3ccnc(C(O)C(C)O)c3)OC(C)(C(F)(F)F)C2C)ccc(F)c1C` (single isomer, unassigned) [Compound 143], the IC50 [2] is reported as at least 1000 nM.

`COc1c(C2CC(C)(C(F)(F)F)OC2C(=O)Nc2ccnc(C(O)C(C)O)c2)ccc(F)c1F` (single isomer, unassigned) [Compound 696] gave an IC50 [2] of 10 to 100 nM.

With `[2H]C([2H])([2H])Oc1c([C@H]2[C@H](C(=O)Nc3ccnc(N4CCNCC4=O)c3)O[C@@](C)(C(F)(F)F)[C@H]2C)ccc(F)c1F` [Compound 515, (2R,3S,4S,5R)-3-[3,4-difluoro-2-(trideuteriomethoxy)phenyl]-4,5-dimethyl-N-[2-(2-oxopiperazin-1-yl)-4-pyridyl]-5-(trifluoromethyl)tetrahydrofuran-2-carboxamide] the IC50 [1] was 10 to 100 nM.

`COc1c([C@H]2[C@H](C(=O)N3Cc4ccncc4C3)O[C@@](C)(C(F)(F)F)[C@H]2C)ccc(F)c1F` [Compound 323, ((2R,3S,4S,5R)-3-(3,4-difluoro-2-methoxyphenyl)-4,5-dimethyl-5-(trifluoromethyl)-tetrahydrofuran-2-yl)(1,3-dihydro-2H-pyrrolo[3,4-c]pyridin-2-yl)methanone] showed an IC50 [1] of at least 1000 nM.

`Cc1nocc1NC(=O)[C@@H]1O[C@@](C)(C(F)(F)F)[C@@H](C)[C@H]1c1ccc(F)c(F)c1OCCN1CC(C)(F)C1` [Compound 630, (2R,3S,4S,5R)-3-(3,4-difluoro-2-(2-(3-fluoro-3-methylazetidin-1-yl)ethoxy)phenyl)-4,5-dimethyl-N-(3-methylisoxazol-4-yl)-5-(trifluoromethyl)tetrahydrofuran-2-carboxamide] gave an IC50 [1] of 10 to 100 nM.

Compound `COc1c(C2C(C(=O)Nc3ccnc(S(C)(=N)=O)c3)OC(C)(C(F)(F)F)C2C)ccc(F)c1F` (single isomer, unassigned) [Compound 54, 3-(3,4-difluoro-2-methoxy-phenyl)-4,5-dimethyl-N-[2-(methylsulfonimidoyl)-4-pyridyl]-5-(trifluoromethyl)tetrahydrofuran-2-carboxamide] has an IC50 [1] of under 10 nM.

In the case of `CCOc1c(C2C(C(=O)Nc3cc(S(C)(=N)=O)c[n+](C)c3)OC(C)(C(F)(F)F)C2C)ccc(F)c1F` (stereo not drawn) [Compound 114, 3-(2-ethoxy-3,4-difluoro-phenyl)-4,5-dimethyl-N-[1-methyl-5-(methylsulfonimidoyl)pyridin-1-ium-3-yl]-5-(trifluoromethyl)tetrahydrofuran-2-carboxamide], the IC50 [1] is reported as 100 to 1000 nM.

`CC1C(c2ccc(F)c(F)c2OCCO)C(C(=O)Nc2ncn(C3CC(F)C3)n2)OC1(C)C(F)(F)F` [Compound 554, (2R,3S,4S,5R)-3-(3,4-difluoro-2-(2-hydroxyethoxy)phenyl)-N-(1-((15,3S)-3-fluorocyclobutyl)-1H-1,2,4-triazol-3-yl)-4,5-dimethyl-5-(trifluoromethyl)tetrahydrofuran-2-carboxamide] was tested, and the IC50 [1] was at least 1000 nM.

For `COc1c([C@H]2[C@H](C(=O)Nc3ccc(N)nc3)O[C@@](C)(C(F)(F)F)[C@H]2C)ccc(F)c1F` [Compound 523, (2R,3S,4S,5R)—N-(6-aminopyridin-3-yl)-3-(3,4-difluoro-2-methoxyphenyl)-4,5-dimethyl-5-(trifluoromethyl)tetrahydrofuran-2-carboxamide], the IC50 [1] was under 10 nM.

Compound `COc1c([C@H]2[C@H](C(=O)Nc3ccnc(C(C)(O)CO)c3)O[C@@](C)(C(F)(F)F)[C@H]2C)ccc(F)c1F` (relative stereo) [Compound 3, rel-(2R*,3S*,4S*,5R*)-3-(3,4-difluoro-2-methoxyphenyl)-N-(2-(1,2-dihydroxypropan-2-yl)pyridin-4-yl)-4,5-dimethyl-5-(trifluoromethyl)tetrahydrofuran-2-carboxamide] has an IC50 [1] of under 10 nM.

For `COc1c([C@H]2[C@H](C(=O)Nc3cncc(S(=O)(=O)N4CCN(C)CC4)c3)O[C@@](C)(C(F)(F)F)[C@H]2C)ccc(F)c1F` [Compound 380, (2R,3S,4S,5R)-3-(3,4-difluoro-2-methoxyphenyl)-4,5-dimethyl-N-(5-((4-methylpiperazin-1-yl)sulfonyl)pyridin-3-yl)-5-(trifluoromethyl)tetrahydrofuran-2-carboxamide], the IC50 [1] was 10 to 100 nM.

Work on `COc1c([C@H]2C[C@@](C)(C(F)(F)F)O[C@@H]2C(=O)Nc2ccnc([C@@H](O)[C@H](C)O)c2)ccc(F)c1F` (stereo in doubt) [Compound 698, rel-(2S,3R,5S)-3-(3,4-difluoro-2-methoxyphenyl)-N-(2-((1R,2S)-1,2-dihydroxypropyl)pyridin-4-yl)-5-methyl-5-(trifluoromethyl)tetrahydrofuran-2-carboxamide] yielded an IC50 [2] of at least 1000 nM.

For `COc1c(C2CC(C)(C(F)(F)F)OC2C(=O)Nc2ccnc(C(O)C(C)O)c2)ccc(F)c1F` (single isomer, unassigned) [Compound 694], the IC50 [2] was 10 to 100 nM.

Compound `COc1c([C@H]2[C@H](C(=O)N[C@@H]3C[C@H]3c3cnn(C)c3)O[C@@](C)(C(F)(F)F)[C@H]2C)ccc(F)c1F` (relative stereo) [Compound 266, rel-(2R*,3S*,4S*,5R*)-3-(3,4-difluoro-2-methoxyphenyl)-4,5-dimethyl-N-((1R,2S)-2-(1-methyl-1H-pyrazol-4-yl)cyclopropyl)-5-(trifluoromethyl)tetrahydrofuran-2-carboxamide] has an IC50 [1] of at least 1000 nM.

`COc1c([C@H]2[C@H](C(=O)Nc3ccc4nc(C(N)=O)nn4c3)O[C@@](C)(C(F)(F)F)[C@H]2C)ccc(F)c1F` [Compound 16] was tested, and the IC50 [1] was 10 to 100 nM.

`COCCOc1c([C@H]2[C@H](C(=O)Nc3ccnc(CO)c3)O[C@@](C)(C(F)(F)F)[C@H]2C)ccc(F)c1F` [Compound 639, (2R,3S,4S,5R)-3-(3,4-difluoro-2-(2-methoxyethoxy)phenyl)-N-(2-(hydroxymethyl)pyridin-4-yl)-4,5-dimethyl-5-(trifluoromethyl)tetrahydrofuran-2-carboxamide] gave an IC50 [1] of under 10 nM.

With `COc1c(C2C(C(=O)Nc3ccnc(C(O)C(C)O)c3)OC(C)(C(F)(F)F)C2C)ccc(F)c1F` (stereo not drawn) [Compound 208, 3-(3,4-difluoro-2-methoxy-phenyl)-N-[2-(1,2-dihydroxypropyl)-4-pyridyl]-4,5-dimethyl-5-(trifluoromethyl)tetrahydrofuran-2-carboxamide] the IC50 [1] was under 10 nM.

In the case of `Cc1nn(C)cc1NC(=O)[C@@H]1O[C@@](C)(C(F)(F)F)[C@@H](C)[C@H]1c1ccc(F)c(F)c1OCCO` [Compound 557, (2R,3S,4S,5R)-3-(3,4-difluoro-2-(2-hydroxyethoxy)phenyl)-N-(1,3-dimethyl-1H-pyrazol-4-yl)-4,5-dimethyl-5-(trifluoromethyl)tetrahydrofuran-2-carboxamide], the IC50 [1] is reported as 10 to 100 nM.
